Laboratory results reported in patent US8735150B2, “Methods for detecting embryonic stem cells, induced pluripotent stem cells, or cells undergoing reprogramming to produce induced pluripotent stem cells” (New York University, priority 2010, dated 2014).

How the values were obtained:
mESC [1] = test: FACS isolation of mESC from a MEF and mESC mixture stained with CDy1; Nanog RT-PCR and colony forming assay; assay type: cell-based, mouse
Description: MEFs and mESCs were cultured in 60 mm culture dishes for 24 hours in the presence of 500 nM of hit compounds including CDy1. The cells were harvested by trypsin treatment, washed with PBS, and resuspended in PBS. The fluorescence intensity of the cells was measured with flow cytometry (BD™ LSR II) with PE-Texas Red filter (excitation at 488 nm, emission at 615 nm). The dot plot images for each cell type were overlaid using FlowJo7 (Tree Star Inc., Ashland, Oreg.). For FACS, MEF and mESC were cultured in the same dish and the sample was prepared as described above for flow cytometry. The cells were gated into SSC^low CDy1^bright and SSC^high CDy1^dim regions and were collected using a FACS machine (BD FACS Aria™, BD Biosciences, Franklin Lakes, N.J.).
Total RNA was isolated from cells using RNeasy Mini Kit (QIAGEN Inc.) according to the manufacturer's instruction. cDNA was synthesized from 1 μg of total RNA using REVERTAID™ H Minus First strand cDNA Synthesis kit (Fermentas, Glen Burnie, Md.) and amplified by PCR using GOTAQ® Green Master Mix (Promega, Fitchburg, Wis.). The PCR conditions were as follows: 30 seconds denaturation at 95° C., 30 seconds annealing at 60° C., and a final 30 seconds of extension at 72° C. The sequences of primers used in this study are: Nanog (GenBank Accession No. NM_028016.1): sense 5′-[…]-3′ (SEQ ID NO:1), antisense 5′-[…]-3′ (SEQ ID NO:2); GAPDH (GenBank Accession No. XM—001473443.1): sense 5′-[…]-3′ (SEQ ID NO:3), antisense 5′-[…]-3′ (SEQ ID NO:4). The PCR products obtained after 25 cycles were resolved on 1% agarose gels, visualized by ethidium bromide staining, and the images were taken using a Gel Logic 200 Imaging System (Kodak, Rochester, N.Y.).
To evaluate the capability of CDy1 to isolate ESC from a mixed cell population, a MEF and mESC mixture was stained with CDy1, the mixed cells were gated into SSC^low CDy1^bright and SSC^high CDy1^dim regions, and 40,000 cells were collected by FACS from each gate for a stem cell marker Nanog gene expression analysis and colony forming assay. […]

human ESC (hESC) (BG01V) = test: Comparison of CDy1 and ALDEFLUOR staining in hESC; assay type: cell-based; conditions: fluorescence microscopy
Description: In this experiment, the cells cultured on 6-well plates were incubated with 1 μM ALDEFLUOR® for one hour at 37° C. and then washed with PBS three times before ALDEFLUOR® assay buffer was added. Bright field (“B.F”) and fluorescence (FITC filter for ALDEFLUOR® and TRITC filter for CDy1) images were taken using a Nikon ECLIPSE Ti fluorescence microscope (Scale bars, 100 μm).
BG01V cells cultured on MEF were selectively stained by CDy1. The expression of hESC marker TRA-1-60 in the CDy1-stained BG01V cells was detected by immunofluorescence staining (Scale bar, 100 μm).
Among the few fluorescent dyes used for stem cell staining (Zijlmans et al., “Modification of Rhodamine Staining Allows Identification of Hematopoietic Stem Cells with Preferential Short-term or Long-term Bone Marrow-Repopulating Ability,” Proc. Natl. Acad. Sci. USA, 92:8901-8905 (1995), which is hereby incorporated by reference in its entirety) is ALDEFLUOR® which employs a fluorescent substrate BODIPY-aminoacetaldehyde for aldehyde dehydrogenase (ALDH)1A1 (Storms et al., “Isolation of Primitive Human Hematopoietic Progenitors on the Basis of Aldehyde Dehydrogenase Activity,” Proc. Natl. Acad. Sci. USA, 96: 9118-9123 (1999), which is hereby incorporated by reference in its entirety). […]

[2] = system: Oct4-GFP transgenic MEF transfected with Oct4, Sox2, Klf4 and c-Myc; test: CDy1 staining of cells at early stages of reprogramming (fluorescence microscopy); assay type: cell-based, mouse; conditions: incubated for one hour
Description: Oct4-GFP transgenic MEF transfected with retrovirus expressing Oct4, Sox2, Klf4, and c-Myc were incubated with CDy1 at 3, 5, 7, and 9 dpi for one hour.
After excess CDy1 was washed out by replacing culture medium, fluorescent cell images were taken using fluorescence microscope.
At 3 and 5 dpi, any dramatic morphological differences between the cells were not observed by phase contrast bright field microscopy (FIG. 16).

differentiated mESC = test: CDy1 staining of differentiated mESC after LIF removal; assay type: cell-based, mouse; conditions: three days culture without LIF
Source text: Morphologically distinguishable differentiated cells were observed after three days culture of mESC in the absence of LIF. As shown in the center panel, most of those cells were CDy1 negative, while some other cells that retained mESC morphology were stained by the dye.
On the other hand, removing the LIF from the culture media induced mESC differentiation and it was observed that some cells were morphologically distinguishable from mESC three days later. Most of the differentiated cells were not stained by CDy1, while some other cells with mESC morphology were stained by the dye showing a similar pattern with immunocytochemical staining by Oct4 antibody (FIG. 11).

mitochondria in mESC = test: Co-staining of mESC with CDy1 and MITOTRACKER Deep Red 633; assay type: cell-based, mouse
Description: In this experiment mESC were incubated with 500 nM CDy1, 200 nM MITOTRACKER® Deep Red 633, and 4 mg/ml Hoechst for 30 minutes at 37° C. and washed with PBS two times. The cells were mounted on slide glass and the images were taken using a Nikon ECLIPSE Ti fluorescence microscope equipped with a ×100 objective lens (Pearson's correlation coefficient=0.88; scale bar, 5 μm).
In a previous study (Kim et al., “Control of Muscle Differentiation by a Mitochondria-Targeted Fluorophore,” J. Am. Chem. Soc. 132(2): 576-579 (2009), which is hereby incorporated by reference in its entirety), CDy1 was among the compounds targeting mitochondria. To examine whether CDy1 localizes in mitochondria in mESC, the cells were co-stained with CDy1 and a mitochondria-staining commercial dye MITOTRACKER® Deep Red 633. […] In addition to the mitochondrial membrane potential which sequesters many cationic rhodamine and rosamine compounds, other factors such as stem cell specific proteins appear to play roles in the entry and retainment of CDy1 rendering it stem cell selective.

mESC [3] = test: Flow cytometry of mESC and MEF incubated separately with rosamine hit compounds (secondary screening); assay type: cell-based, mouse; conditions: 500 nM
Description: FIG. 5 is a table of flow cytometry results, which show the structure-cell selectivity relationship in CDy1 analogues. The ratios of mESC to MEF fluorescence mean values obtained from flow cytometry were used for cell selectivity analysis. The cells were incubated with 500 nM of each compound for one hour and washed with phosphate buffered saline (PBS) for flow cytometry.
MEFs and mESCs were cultured in 60 mm culture dishes for 24 hours in the presence of 500 nM of hit compounds including CDy1. The cells were harvested by trypsin treatment, washed with PBS, and resuspended in PBS. The fluorescence intensity of the cells was measured with flow cytometry (BD™ LSR II) with PE-Texas Red filter (excitation at 488 nm, emission at 615 nm). The dot plot images for each cell type were overlaid using FlowJo7 (Tree Star Inc., Ashland, Oreg.). […]
For a high-throughput screening, mESC and MEF feeder cells were incubated with 280 rosamine compounds at a concentration of 500 nM in 384-well microplates. After 0.5 hours, 24 hours, and 48 hours, TRITC fluorescence and bright field images were taken using an ImageXpress^MICRO imaging system. […] As a secondary screening, mESC and MEF were incubated separately with each of the hit compounds and these were analyzed using flow cytometry (see work flow set out in FIGS. 1A-1B; results shown in FIGS. 2A-2C and FIG. 3).

iPSC = test: CDy1 staining of iPSC colonies generated from Oct4-GFP transgenic mouse MEF; assay type: cell-based
Description: The retroviral packaging cell, PlatE cell, was maintained in DMEM containing 10% FBS, 100 U/ml penicillin, 100 μg/ml streptomycin, 10 μg/mlblasticidin S, and 1 μg/ml puromycin. For the generation of retroviruses, 40 μg of each retroviral vector expressing each mouse Oct4, Sox2, Klf4, and c-Myc was transfected together using Lipofectamine™ 2000 (Invitrogen, Carlsbad, Calif.) into PlatE cells plated at a density of 8×10^6 cells/10 cm cell culture dish and cultured overnight in DMEM containing 10% FBS. Medium was changed five hours after transfection to normal maintenance medium and incubated further in a humidified atmosphere of 5% CO2 and 95% air at 37° C. Culture supernatant was harvested 48 hours after transfection, filtered through a 0.45 μm syringe filter, concentrated by using amicon ultra-15 Centrifugal filter units (Millipore, Billerica, Mass.), and stored at −80° C. until use. For reprogramming, MEFs prepared from E13.5 B6; CBA-Tg(Pou5f1-EGFP)2Mnn/J mouse (Jackson Laboratory, Bar Harbor, Me.) embryo were infected with retrovirus mixture eight hours later. Polybrene (Sigma-Aldrich, St. Louis, Mo.) was added at a concentration of 10 μg/ml to increase virus adsorption. Infected MEFs were harvested 48 hours later by trypsinization and plated onto mytomycin C treated MEF feeder cells. The cells were maintained in mESC culture medium that was changed every day until designated time points.
The reprogramming was performed in a 6-well culture dish by retroviral introduction of four transcriptions factors: Oct4, Sox2, Klf4, and c-Myc (Takahashi et al., “Induction of Pluripotent Stem Cells from Mouse Embryonic and Adult Fibroblast Cultures by Defined Factors,” Cell, 126(4):663-676 (2006), which is hereby incorporated by reference in its entirety). iPSC generation was verified by GFP expression, alkaline phosphatase assay, and immunostaining of SSEA-1 at 17 days post infection (“dpi”). […] When the 155 colonies grown in 6-well plate cells were treated with CDy1 at 17 dpi, 101 colonies (65%) were both CDy1 and GFP positive, 26 (17%) were CDy1-only positive, 4 (3%) were GFP-only positive and 24 (15%) were negative both for CDy1 and GFP, despite the fact that the morphology of the colonies was indistinguishable (FIG. 9).
In a cell culture treated with CDy1 at an earlier time point of iPSC generation (10 dpi), increasing numbers of CDy1-stained colonies started to show GFP signal during the following days (FIG. 10A). To perform a more systematic analysis, the cells were stained with CDy1 at 2 dpi (i.e., when iPSC was not distinguishable by any means) and the CDy1 and GFP signals were tracked by daily acquisition of cell images using an ImageXpress^MICRO system. At 10 dpi, when small colonies started to appear, 342 CDy1-positive but GFP-negative colonies were selected and their GFP expression was followed until 25 dpi. An increasing number of colonies started to express GFP during this period, and 338 (99%) out of the 342 tracked colonies were GFP-positive at 25 dpi (FIG. 10B).

[4] = 40,000 cells collected by FACS, three days culture

- differences in number of GFP-positive colonies or cell morphology compared to untreated iPSC (iPSC; 10 to 25 dpi): no detectable differences
SMILES: CCCCN(CCCC)c1ccc2c(-c3cccc(CN4CCOCC4)c3)c3ccc(=N)cc-3oc2c1 [CDy1]
- number of colonies from SSChigh CDy1dim cells (mESC [1]; [4]): 6
- number of colonies from SSClow CDy1bright cells (mESC [1]; [4]): 604
- Nanog expression in SSClow CDy1bright cells versus SSChigh CDy1dim cells (mESC [1]; RT-PCR): much higher
- staining of hESC (human ESC (hESC) (BG01V)): stained both
- staining at 3 and 5 dpi [2]: scattered single cells stained
- staining at 7 and 9 dpi [2]: some of the clusters were stained
- staining of differentiated cells (differentiated mESC): not stained
- staining pattern compared with MITOTRACKER staining (mitochondria in mESC): very similar to MITOTRACKER® staining
- Pearson's correlation coefficient of CDy1 and MITOTRACKER co-localization (mitochondria in mESC; 500 nM CDy1, 200 nM MITOTRACKER Deep Red 633, 30 minutes at 37° C.): 0.88
- higher fluorescence intensity in mESC than in MEF (ratio of mESC to MEF fluorescence mean values) (mESC [3]): 12.2 fold
- mESC selectivity (in words) (mESC [3]; mESC vs MEF): most selective for mESCs among the 20 hit compounds
- earliest CDy1 staining of the cells that expressed GFP at 12 dpi (iPSC): 6 dpi
- selective staining of iPSC colony (iPSC; 17 dpi): selectively stained the iPSC colony
